Measurements: US20180263996A1, “ARYL SULTAM DERIVATIVES AS RORc MODULATORS” (Genentech, Inc., priority 2015, published 2018)

target: T1, RORc (Homo sapiens, UniProt P51449); test: In Vitro RORc Ligand Binding Assay; conditions: IC50 values for RORc
T1 construct: host or cells: E. coli
T1 sequence (P51449 269-508 limits assumed): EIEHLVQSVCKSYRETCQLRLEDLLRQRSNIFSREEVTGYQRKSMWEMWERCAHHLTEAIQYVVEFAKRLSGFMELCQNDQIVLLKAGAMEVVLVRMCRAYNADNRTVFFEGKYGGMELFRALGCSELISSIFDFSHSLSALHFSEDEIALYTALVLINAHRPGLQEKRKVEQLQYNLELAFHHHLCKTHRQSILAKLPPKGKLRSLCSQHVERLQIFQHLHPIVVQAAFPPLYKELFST

Row | SMILES | IC50
1 | CN/C(=C\C#N)NC(C)c1cc(F)c(CN2[C@@H](C)CC[C@H](c3ccccc3)S2(=O)=O)cc1F (stereo partly drawn) [Compound 45, 3-[1-[2,5-difluoro-4-[[(3S,6R)-3-methyl-1,1-dioxo-6-phenyl-thiazinan-2-yl]methyl]phenyl]ethylamino]-3-(methylamino)prop-2-enenitrile; formic acid] | 695 nM
2 | C[C@H]1CC[C@H](c2ccccc2)S(=O)(=O)N1Cc1cc(F)c([C@]2(C(N)=O)C[C@@](C)(O)C2)cc1F [Compound 49, 1-[2,5-difluoro-4-[[(3S,6R)-3-methyl-1,1-dioxo-6-phenyl-thiazinan-2-yl]methyl]phenyl]-3-hydroxy-3-methyl-cyclobutanecarboxamide] | 199 nM
3 | CC(NC(=O)Cc1cnoc1)c1cc(F)c(CN2[C@@H](C)CC[C@H](c3ccccc3)S2(=O)=O)cc1F (stereo partly drawn) [Compound 52, N-[1-[2,5-difluoro-4-[[(3S,6R)-3-methyl-1,1-dioxo-6-phenyl-thiazinan-2-yl]methyl]phenyl]ethyl]-2-isoxazol-4-yl-acetamide] | 101 nM
4 | CC(NCc1cocn1)c1cc(F)c(CN2[C@@H](C)CC[C@H](c3ccccc3)S2(=O)=O)cc1F (stereo partly drawn) [Compound 54, 1-[2,5-difluoro-4-[[(3S,6R)-3-methyl-1,1-dioxo-6-phenyl-thiazinan-2-yl]methyl]phenyl]-N-(oxazol-4-ylmethyl)ethanamine] | 255 nM

The next compounds have a lower IC50 than those just listed; values first:

Row | IC50 | SMILES
5 | 32.6 nM | C[C@H]1CC[C@H](c2ccccc2)S(=O)(=O)N1Cc1cc(F)c(C2(C(=O)N[C@H]3C[C@@H](O)C3)CCOCC2)cc1F [Compound 38, 4-[2,5-difluoro-4-[[(3S,6R)-3-methyl-1,1-dioxo-6-phenyl-thiazinan-2-yl]methyl]phenyl]-N-(3-hydroxycyclobutyl) tetrahydropyran-4-carboxamide]
6 | 6.8 nM | C[C@H]1CC[C@H](c2ccccc2)S(=O)(=O)N1Cc1cc(F)c(C2(OCC(=O)NC3CC3)CCOCC2)cc1F [Compound 41, N-cyclopropyl-2-[4-[2,5-difluoro-4-[[(3S,6R)-3-methyl-1,1-dioxo-6-phenyl-thiazinan-2-yl]methyl]phenyl]tetrahydropyran-4-yl]oxy-acetamide]
7 | 39.4 nM | C[C@H]1CC[C@H](c2ccccc2)S(=O)(=O)N1Cc1cc(F)c([C@@]23C[C@@H]2COC3=O)cc1F [Compound 43, (1R,5S)-1-[2,5-difluoro-4-[[(3S,6R)-3-methyl-1,1-dioxo-6-phenyl-thiazinan-2-yl]methyl]phenyl]-3-oxabicyclo[3.1.0]hexan-2-one]
8 | 18.5 nM | C[C@H]1CC[C@H](c2ccccc2)S(=O)(=O)N1Cc1cc(F)c(C2(C(N)=O)CC(CC#N)C2)cc1F (stereo partly drawn) [Compound 44, 3-(cyanomethyl)-1-[2,5-difluoro-4-[[(3S,6R)-3-methyl-1,1-dioxo-6-phenyl-thiazinan-2-yl]methyl]phenyl]cyclobutane-carboxamide]
9 | 4.7 nM | C[C@H]1CC[C@H](c2ccccc2)S(=O)(=O)N1Cc1cc(F)c([C@]2(C(N)=O)C[C@](C)(O)C2)cc1F [Compound 48, 1-[2,5-difluoro-4-[[(3S,6R)-3-methyl-1,1-dioxo-6-phenyl-thiazinan-2-yl]methyl]phenyl]-3-hydroxy-3-methyl-cyclobutanecarboxamide]
10 | 22 nM | CC(NCc1cnoc1)c1cc(F)c(CN2[C@@H](C)CC[C@H](c3ccccc3)S2(=O)=O)cc1F (stereo partly drawn) [Compound 50, 1-[2,5-difluoro-4-[[(3S,6R)-3-methyl-1,1-dioxo-6-phenyl-thiazinan-2-yl]methyl]phenyl]-N-(isoxazol-4-ylmethyl)ethanamine]
